Laboratory results reported in ChEMBL document CHEMBL1147331, “Cytotoxic and antimalarial bisbenzylisoquinoline alkaloids from Stephania erecta” (J Nat Prod, 1993).
≈ marks a conversion by molar mass, not a printed value.

Columns and labels:
[1] = Selectivity index, ratio of ED50 for human HT1080 cells to ED50 for chloroquine-sensitive Plasmodium falciparum D6; format: toxicity, cell-based, HT-1080; conditions: read-out: Ratio ED50
in vitro [2] = conditions: mouse, P388 cells
Description: Selectivity index, ratio of ED50 for mice (Mus musculus) P388 cells to ED50 for chloroquine-sensitive Plasmodium falciparum D6

[3] = Cytotoxicity against human BCA1 cells after 3 days by sulforhodamine B assay; format: cell-based; conditions: read-out: ED50
[4] = Selectivity index, ratio of ED50 for human MEL2 cells to ED50 for chloroquine-resistant Plasmodium falciparum W2; format: toxicity, cell-based; conditions: read-out: Ratio ED50
Plasmodium falciparum [5] = assay: Antimalarial activity after 24 hrs against chloroquine-sensitive Plasmodium falciparum D6 infected type A+ human erythrocytes by [3H]hypoxanthine uptake; format: functional; conditions: read-out: ED50 (the source's name)
[6] = Selectivity index, ratio of ED50 for human BCA1 cells to ED50 for chloroquine-resistant Plasmodium falciparum W2; format: toxicity, cell-based; conditions: read-out: Ratio ED50
[7] = Cytotoxicity against human Col1 cells after 3 days by sulforhodamine B assay; format: cell-based; conditions: read-out: ED50
[8] = Selectivity index, ratio of ED50 for human KB-V1 cells to ED50 for chloroquine-sensitive Plasmodium falciparum D6; format: toxicity, cell-based; conditions: read-out: Ratio ED50
[9] = Cytotoxicity against human LNCAP cells after 3 days by sulforhodamine B assay; format: cell-based; conditions: read-out: ED50
[10] = Selectivity index, ratio of ED50 for human ZR-75-1 cells to ED50 for chloroquine-sensitive Plasmodium falciparum D6; format: toxicity, cell-based; conditions: read-out: Ratio ED50
[11] = Selectivity index, ratio of ED50 for human COL1 cells to ED50 for chloroquine-sensitive Plasmodium falciparum D6; format: toxicity, cell-based; conditions: read-out: Ratio ED50
[12] = Selectivity index, ratio of ED50 for human LNCaP cells to ED50 for chloroquine-resistant Plasmodium falciparum W2; format: toxicity, cell-based; conditions: read-out: Ratio ED50
[13] = Selectivity index, ratio of ED50 for human KB cells to ED50 for chloroquine-resistant Plasmodium falciparum W2; format: toxicity, cell-based; conditions: read-out: Ratio ED50
[14] = Cytotoxicity against human HT1080 cells after 3 days by sulforhodamine B assay; format: cell-based, HT-1080; conditions: read-out: ED50
[15] = Selectivity index, ratio of ED50 for human KB-V1 cells to ED50 for chloroquine-resistant Plasmodium falciparum W2; format: toxicity, cell-based; conditions: read-out: Ratio ED50
[16] = Cytotoxicity against human LUC1 cells after 3 days by sulforhodamine B assay; format: cell-based; conditions: read-out: ED50
[17] = Cytotoxicity against human SK-MEL-2 cells after 3 days by sulforhodamine B assay; format: cell-based; conditions: read-out: ED50
in vitro [18] = conditions: mouse, P388 cells; remark: listed apart in the source
Description: Selectivity index, ratio of ED50 for mice (Mus musculus) P388 cells to ED50 for chloroquine-resistant Plasmodium falciparum W2

[19] = Selectivity index, ratio of ED50 for human KB cells to ED50 for chloroquine-sensitive Plasmodium falciparum D6; format: toxicity, cell-based; conditions: read-out: Ratio ED50
[20] = Cytotoxicity against human ZR-75-1 cells after 3 days by sulforhodamine B assay; format: cell-based; conditions: read-out: ED50
[21] = Selectivity index, ratio of ED50 for human MEL2 cells to ED50 for chloroquine-sensitive Plasmodium falciparum D6; format: toxicity, cell-based; conditions: read-out: Ratio ED50
[22] = Selectivity index, ratio of ED50 for human ZR-75-1 cells to ED50 for chloroquine-resistant Plasmodium falciparum W2; format: toxicity, cell-based; conditions: read-out: Ratio ED50
in vitro [23] = conditions: human, A431 cells
Description: Selectivity index, ratio of ED50 for human A431 cells to ED50 for chloroquine-resistant Plasmodium falciparum W2

[24] = Selectivity index, ratio of ED50 for human LUC1 cells to ED50 for chloroquine-sensitive Plasmodium falciparum D6; format: toxicity, cell-based; conditions: read-out: Ratio ED50
[25] = Cytotoxicity against mouse P388 cells after 2 days by sulforhodamine B assay; format: cell-based; conditions: read-out: ED50
[26] = Selectivity index, ratio of ED50 for human LUC1 cells to ED50 for chloroquine-resistant Plasmodium falciparum W2; format: toxicity, cell-based; conditions: read-out: Ratio ED50
[27] = Cytotoxicity against human KB cells after 3 days by sulforhodamine B assay; format: cell-based; conditions: read-out: ED50
Plasmodium falciparum [28] = assay: Antimalarial activity after 24 hrs against chloroquine-resistant Plasmodium falciparum W2 infected type A+ human erythrocytes by [3H]hypoxanthine uptake; format: functional; conditions: read-out: ED50 (the source's name)
[29] = Selectivity index, ratio of ED50 for human COL1 cells to ED50 for chloroquine-resistant Plasmodium falciparum W2; format: toxicity, cell-based; conditions: read-out: Ratio ED50
[30] = Selectivity index, ratio of ED50 for human BCA1 cells to ED50 for chloroquine-sensitive Plasmodium falciparum D6; format: toxicity, cell-based; conditions: read-out: Ratio ED50
[31] = Selectivity index, ratio of ED50 for human HT1080 cells to ED50 for chloroquine-resistant Plasmodium falciparum W2; format: toxicity, cell-based, HT-1080; conditions: read-out: Ratio ED50
in vitro [32] = conditions: human, A431 cells; remark: listed apart in the source
Description: Selectivity index, ratio of ED50 for human A431 cells to ED50 for chloroquine-sensitive Plasmodium falciparum D6

[33] = Cytotoxicity against human KBV1 cells after 3 days by sulforhodamine B assay; format: cell-based, KB-V1; conditions: read-out: ED50
[34] = Cytotoxicity against human A431 cells after 3 days by sulforhodamine B assay; format: cell-based, A-431; conditions: read-out: ED50
[35] = Selectivity index, ratio of ED50 for human LNCaP cells to ED50 for chloroquine-sensitive Plasmodium falciparum D6; format: toxicity, cell-based; conditions: read-out: Ratio ED50

For COc1ccc2cc1Oc1ccc(cc1)C[C@H]1c3c(cc(OC)c(OC)c3Oc3cc4c(cc3OC)CCN[C@@H]4C2)CCN1C, the selectivity ratio [1] was 161, the selectivity ratio (in vitro [2]) was 76 and the CC50 at 72 h [3] was 3.2 µg/mL (≈ 5.26 µM). For the same molecule, the selectivity ratio [4] was 155, the EC50 (Plasmodium falciparum [5]) was 0.0459 µg/mL (≈ 0.0754 µM) and the selectivity ratio [6] was 34. For the same molecule, the CC50 at 72 h [7] was 5.5 µg/mL (≈ 9.04 µM), the selectivity ratio [8] was 44 and the CC50 at 72 h [9] was 3.7 µg/mL (≈ 6.08 µM). It also gave a selectivity ratio [10] of 41, a selectivity ratio [11] of 120 and a selectivity ratio [12] of 40. It also gave a selectivity ratio [13] of 64, a CC50 at 72 h [14] of 7.4 µg/mL (≈ 12.2 µM) and a selectivity ratio [15] of 21. For the same molecule, the CC50 at 72 h [16] was 8.8 µg/mL (≈ 14.5 µM), the CC50 at 72 h [17] was 14.5 µg/mL (≈ 23.8 µM) and the selectivity ratio (in vitro [18]) was 37. For the same molecule, the selectivity ratio [19] was 131, the CC50 at 72 h [20] was 1.9 µg/mL (≈ 3.12 µM) and the selectivity ratio [21] was 316. It also gave a selectivity ratio [22] of 20, a selectivity ratio (in vitro [23]) of 65 and a selectivity ratio [24] of 192. For the same molecule, the CC50 at 48 h [25] was 3.5 µg/mL (≈ 5.75 µM), the selectivity ratio [26] was 94 and the CC50 at 72 h [27] was 6 µg/mL (≈ 9.86 µM). For the same molecule, the EC50 (Plasmodium falciparum [28]) was 0.0937 µg/mL (≈ 0.154 µM), the selectivity ratio [29] was 59 and the selectivity ratio [30] was 70. It also gave a selectivity ratio [31] of 79, a selectivity ratio (in vitro [32]) of 133 and a CC50 at 72 h [33] of 2 µg/mL (≈ 3.29 µM). For the same molecule, the CC50 at 72 h [34] was 6.1 µg/mL (≈ 10 µM) and the selectivity ratio [35] was 81.
Molecule COc1ccc2cc1Oc1ccc(cc1)C[C@H]1c3c(cc(OC)c(OC)c3Oc3cc4c(cc3OC)CCN(C)[C@@H]4C2)CCN1C [OBABERINE] has a selectivity ratio [1] of 45, a selectivity ratio (in vitro [2]) of 18 and a CC50 at 72 h [3] of 4.6 µg/mL (≈ 7.39 µM). It also gave a selectivity ratio [4] of 93, an EC50 (Plasmodium falciparum [5]) of 0.231 µg/mL (≈ 0.371 µM) and a selectivity ratio [6] of 21. The CC50 at 72 h [7] was 10.8 µg/mL (≈ 17.3 µM), the selectivity ratio [8] was 11 and the CC50 at 72 h [9] was 5 µg/mL (≈ 8.03 µM). The selectivity ratio [10] was 17, the selectivity ratio [11] was 47 and the selectivity ratio [12] was 23. It also gave a selectivity ratio [13] of 40, a CC50 at 72 h [14] of 10.4 µg/mL (≈ 16.7 µM) and a selectivity ratio [15] of 12. It also gave a CC50 at 72 h [16] of 9.7 µg/mL (≈ 15.6 µM), a CC50 at 72 h [17] of 20 µg/mL (≈ 32.1 µM) and a selectivity ratio (in vitro [18]) of 19. It also gave a selectivity ratio [19] of 37, a CC50 at 72 h [20] of 4 µg/mL (≈ 6.42 µM) and a selectivity ratio [21] of 87. The selectivity ratio [22] was 19, the selectivity ratio (in vitro [23]) was 40 and the selectivity ratio [24] was 42. It also gave a CC50 at 48 h [25] of 4.1 µg/mL (≈ 6.58 µM), a selectivity ratio [26] of 45 and a CC50 at 72 h [27] of 8.6 µg/mL (≈ 13.8 µM). It also gave an EC50 (Plasmodium falciparum [28]) of 0.216 µg/mL (≈ 0.347 µM), a selectivity ratio [29] of 50 and a selectivity ratio [30] of 20. For the same molecule, the selectivity ratio [31] was 48, the selectivity ratio (in vitro [32]) was 38 and the CC50 at 72 h [33] was 2.6 µg/mL (≈ 4.17 µM). The CC50 at 72 h [34] was 8.7 µg/mL (≈ 14 µM) and the selectivity ratio [35] was 22.
Work on COc1ccc2cc1Oc1ccc(cc1)C[C@H]1c3c(cc4c(c3Oc3cc5c(cc3OC)CCN[C@@H]5C2)OCO4)CCN1C yielded a selectivity ratio [1] of 41, a selectivity ratio (in vitro [2]) of 2 and a CC50 at 72 h [3] of 1.7 µg/mL (≈ 2.87 µM). The selectivity ratio [4] was 81, the EC50 (Plasmodium falciparum [5]) was 0.0466 µg/mL (≈ 0.0786 µM) and the selectivity ratio [6] was 13. For the same molecule, the CC50 at 72 h [7] was 3.1 µg/mL (≈ 5.23 µM), the selectivity ratio [8] was 30 and the CC50 at 72 h [9] was 3 µg/mL (≈ 5.06 µM). For the same molecule, the selectivity ratio [10] was 19, the selectivity ratio [11] was 67 and the selectivity ratio [12] was 23. The selectivity ratio [13] was 30, the CC50 at 72 h [14] was 1.9 µg/mL (≈ 3.21 µM) and the selectivity ratio [15] was 11. The CC50 at 72 h [16] was 2 µg/mL (≈ 3.37 µM), the CC50 at 72 h [17] was 10.5 µg/mL (≈ 17.7 µM) and the selectivity ratio (in vitro [18]) was 1. For the same molecule, the selectivity ratio [19] was 84, the CC50 at 72 h [20] was 0.9 µg/mL (≈ 1.52 µM) and the selectivity ratio [21] was 225. The selectivity ratio [22] was 7, the selectivity ratio (in vitro [23]) was 14 and the selectivity ratio [24] was 43. The CC50 at 48 h [25] was 0.1 µg/mL (≈ 0.169 µM), the selectivity ratio [26] was 16 and the CC50 at 72 h [27] was 3.9 µg/mL (≈ 6.58 µM). It also gave an EC50 (Plasmodium falciparum [28]) of 0.129 µg/mL (≈ 0.218 µM), a selectivity ratio [29] of 24 and a selectivity ratio [30] of 36. The selectivity ratio [31] was 15, the selectivity ratio (in vitro [32]) was 39 and the CC50 at 72 h [33] was 1.4 µg/mL (≈ 2.36 µM). For the same molecule, the CC50 at 72 h [34] was 1.8 µg/mL (≈ 3.04 µM) and the selectivity ratio [35] was 64.
